Source: patent publication US20230372498A1, “PLK1 SELECTIVE DEGRADATION INDUCING COMPOUND” (UPPTHERA, priority 2020, published 2023)

Molecular target: T1, PLK1 (Homo sapiens, UniProt P53350)
T1 construct: endogenous in cells; host or cells: HeLa
Assay: PLK1 protein degradation in HeLa cells, Western blotting (PLK1/GAPDH ratio)
Assay type: cell-based
Conditions: 6 hours compound incubation; for DC50: measured only if the grade of Dmax is A or B; for Dmax: thymidine block and release, 10 points three-fold from 3 μM, PLK1 to GAPDH ratio, read-out: Dmax
Summary of the method: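 PLK1 level measured by Western blot as PLK1/GAPDH in HeLa lysates (15 μg protein per lane). Cells were blocked with 2 mM thymidine 24 h, released 4 h, and exposed 6 h to compound, 10 concentrations, 3-fold steps, top 3 μM.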

T1 sequence (P53350 whole entry): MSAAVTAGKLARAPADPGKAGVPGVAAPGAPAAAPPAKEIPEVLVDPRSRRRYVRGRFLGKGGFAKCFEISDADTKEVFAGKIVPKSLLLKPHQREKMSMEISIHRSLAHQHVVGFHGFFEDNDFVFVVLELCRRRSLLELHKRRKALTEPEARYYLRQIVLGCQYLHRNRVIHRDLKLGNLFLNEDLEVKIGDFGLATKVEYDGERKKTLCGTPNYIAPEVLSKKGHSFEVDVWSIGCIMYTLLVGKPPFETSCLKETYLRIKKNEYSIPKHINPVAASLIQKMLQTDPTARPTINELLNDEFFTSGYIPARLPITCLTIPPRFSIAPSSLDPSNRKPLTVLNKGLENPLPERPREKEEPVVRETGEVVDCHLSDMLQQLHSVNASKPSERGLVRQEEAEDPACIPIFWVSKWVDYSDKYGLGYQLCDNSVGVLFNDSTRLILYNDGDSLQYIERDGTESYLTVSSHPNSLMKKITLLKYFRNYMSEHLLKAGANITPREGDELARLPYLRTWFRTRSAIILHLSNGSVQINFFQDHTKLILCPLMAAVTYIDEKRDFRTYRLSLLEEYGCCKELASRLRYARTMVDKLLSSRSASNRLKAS

| DC50 [nM] | Dmax [%] | Structure (SMILES) |
| --- | --- | --- |
| ≤ 50 | ≥ 80 | COc1cc(C(=O)N[C@H]2CCN(C(=O)CCCCCNc3cccc4c3C(=O)N(C3CCC(=O)NC3=O)C4=O)C2)c(F)cc1Nc1ncc2c(n1)N(C1CCCC1)CC(F)(F)C(=O)N2C (stereo partly drawn) [Compound 119, 4-((9-cyclopentyl-7,7-difluoro-5-methyl-6-oxo-6,7,8,9-tetrahydro-5H-pyrimido[4,5-b][1,4]diazepin-2-yl)amino)-N-((3S)-1-(6-((2-(2,6-dioxopiperidin-3-yl)-1,3-dioxoisoindolin-4-yl)amino)hexanoyl)pyrrolidin-3-yl)-2-fluoro-5-methoxybenzamide] |
| ≤ 50 | ≥ 80 | COc1cc(C(=O)N[C@@H]2CCN(C(=O)CCCCCNc3cccc4c3C(=O)N(C3CCC(=O)NC3=O)C4=O)C2)c(F)cc1Nc1ncc2c(n1)N(C1CCCC1)CC(F)(F)C(=O)N2C (stereo partly drawn) [Compound 120, 4-((9-cyclopentyl-7,7-difluoro-5-methyl-6-oxo-6,7,8,9-tetrahydro-5H-pyrimido[4,5-b][1,4]diazepin-2-yl)amino)-N-((3R)-1-(6-((2-(2,6-dioxopiperidin-3-yl)-1,3-dioxoisoindolin-4-yl)amino)hexanoyl)pyrrolidin-3-yl)-2-fluoro-5-methoxybenzamide] |
| ≤ 50 | ≥ 80 | COc1cc(C(=O)N[C@H]2CCN(CC(=O)NCCOCCNc3cccc4c3C(=O)N(C3CCC(=O)NC3=O)C4=O)C2)c(F)cc1Nc1ncc2c(n1)N(C1CCCC1)CC(F)(F)C(=O)N2C (stereo partly drawn) [Compound 121, 4-((9-cyclopentyl-7,7-difluoro-5-methyl-6-oxo-6,7,8,9-tetrahydro-5H-pyrimido[4,5-b][1,4]diazepin-2-yl)amino)-N-((3S)-1-(2-((2-(2-((2-(2,6-dioxopiperidin-3-yl)-1,3-dioxoisoindolin-4-yl)amino)ethoxy)ethyl)amino)-2-oxoethyl)pyrrolidin-3-yl)-2-fluoro-5-methoxybenzamide] |
| ≤ 50 | ≥ 80 | COc1cc(C(=O)N[C@H]2CCN(CC(=O)NCCCNc3cccc4c3C(=O)N(C3CCC(=O)NC3=O)C4=O)C2)c(F)cc1Nc1ncc2c(n1)N(C1CCCC1)CC(F)(F)C(=O)N2C (stereo partly shown) [Compound 122] |
| ≤ 50 | ≥ 80 | COc1cc(C(=O)NC2CN(CCOCCOCCNc3cccc4c3C(=O)N(C3CCC(=O)NC3=O)C4=O)C2)c(F)cc1Nc1ncc2c(n1)N(C1CCCC1)CC(F)(F)C(=O)N2C (stereo not shown) [Compound 123, 4-((9-cyclopentyl-7,7-difluoro-5-methyl-6-oxo-6,7,8,9-tetrahydro-5H-pyrimido[4,5-b][1,4]diazepin-2-yl)amino)-N-(1-(2-(2-(2-((2-(2,6-dioxopiperidin-3-yl)-1,3-dioxoisoindolin-4-yl)amino)ethoxy)ethoxy)ethyl)azetidin-3-yl)-2-fluoro-5-methoxybenzamide] |
| ≤ 500 | 60 to 80 | COc1cc(C(=O)NCC2CCCN2CCOCCNc2cccc3c2C(=O)N(C2CCC(=O)NC2=O)C3=O)c(F)cc1Nc1ncc2c(n1)N(C1CCCC1)CC(F)(F)C(=O)N2C (stereo not shown) [Compound 124, 4-((9-cyclopentyl-7,7-difluoro-5-methyl-6-oxo-6,7,8,9-tetrahydro-5H-pyrimido[4,5-b][1,4]diazepin-2-yl)amino)-N-((1-(2-(2-((2-(2,6-dioxopiperidin-3-yl)-1,3-dioxoisoindolin-4-yl)amino)ethoxy)ethyl)pyrrolidin-2-yl)methyl)-2-fluoro-5-methoxybenzamide] |
| ≤ 50 | ≥ 80 | COc1cc(C(=O)NCC2CCCN(CCOCCNc3cccc4c3C(=O)N(C3CCC(=O)NC3=O)C4=O)C2)c(F)cc1Nc1ncc2c(n1)N(C1CCCC1)CC(F)(F)C(=O)N2C (stereo not shown) [Compound 125, 4-((9-cyclopentyl-7,7-difluoro-5-methyl-6-oxo-6,7,8,9-tetrahydro-5H-pyrimido[4,5-b][1,4]diazepin-2-yl)amino)-N-((1-(2-(2-((2-(2,6-dioxopiperidin-3-yl)-1,3-dioxoisoindolin-4-yl)amino)ethoxy)ethyl)piperidin-3-yl)methyl)-2-fluoro-5-methoxybenzamide] |
| ≤ 500 | 60 to 80 | COc1cc(C(=O)NCC2CCCCN2CCOCCNc2cccc3c2C(=O)N(C2CCC(=O)NC2=O)C3=O)c(F)cc1Nc1ncc2c(n1)N(C1CCCC1)CC(F)(F)C(=O)N2C (stereo not shown) [Compound 126, 4-((9-cyclopentyl-7,7-difluoro-5-methyl-6-oxo-6,7,8,9-tetrahydro-5H-pyrimido[4,5-b][1,4]diazepin-2-yl)amino)-N-((1-(2-(2-((2-(2,6-dioxopiperidin-3-yl)-1,3-dioxoisoindolin-4-yl)amino)ethoxy)ethyl)piperidin-2-yl)methyl)-2-fluoro-5-methoxybenzamide] |
| ≤ 500 | 60 to 80 | COc1cc(C(=O)NC2CCN(CCOCCNC(=O)COc3cccc4c3C(=O)N(C3CCC(=O)NC3=O)C4=O)C2)c(F)cc1Nc1ncc2c(n1)N(C1CCCC1)CC(F)(F)C(=O)N2C (stereo not shown) [Compound 127, 4-((9-cyclopentyl-7,7-difluoro-5-methyl-6-oxo-6,7,8,9-tetrahydro-5H-pyrimido[4,5-b][1,4]diazepin-2-yl)amino)-N-(1-(2-(2-(2-((2-(2,6-dioxopiperidin-3-yl)-1,3-dioxoisoindolin-4-yl)oxy)acetamido)ethoxy)ethyl)pyrrolidin-3-yl)-2-fluoro-5-methoxybenzamide] |
| ≤ 50 | ≥ 80 | COc1cc(C(=O)NC2CCN(C(=O)CCN3CCN(c4cccc5c4C(=O)N(C4CCC(=O)NC4=O)C5=O)CC3)CC2)ccc1Nc1ncc2c(n1)N(C1CCCC1)CC(F)(F)C(=O)N2C (stereo not shown) [Compound 128, 4-((9-cyclopentyl-7,7-difluoro-5-methyl-6-oxo-6,7,8,9-tetrahydro-5H-pyrimido[4,5-b][1,4]diazepin-2-yl)amino)-N-(1-(3-(4-(2-(2,6-dioxopiperidin-3-yl)-1,3-dioxoisoindolin-4-yl)piperazin-1-yl)propanoyl)piperidin-4-yl)-3-methoxybenzamide] |
| ≤ 50 | ≥ 80 | CN1C(=O)C(F)(F)CN(C2CCCC2)c2nc(Nc3ccc(C(=O)NC4CCN(C(=O)CCN5CCN(c6cccc7c6C(=O)N(C6CCC(=O)NC6=O)C7=O)CC5)CC4)cc3)ncc21 (stereo not shown) [Compound 129, 4-((9-cyclopentyl-7,7-difluoro-5-methyl-6-oxo-6,7,8,9-tetrahydro-5H-pyrimido[4,5-b][1,4]diazepin-2-yl)amino)-N-(1-(3-(4-(2-(2,6-dioxopiperidin-3-yl)-1,3-dioxoisoindolin-4-yl)piperazin-1-yl)propanoyl)piperidin-4-yl)benzamide] |
| ≤ 50 | ≥ 80 | COc1cc(C(=O)N[C@H]2CCN(C(=O)CN3CCN(c4cccc5c4C(=O)N(C4CCC(=O)NC4=O)C5=O)CC3)C2)c(F)cc1Nc1ncc2c(n1)N(C1CCCC1)CC(F)(F)C(=O)N2C (stereo partly shown) [Compound 130] |
| ≤ 50 | ≥ 80 | COc1cc(C(=O)N[C@H]2CCN(C(=O)CCN3CCN(c4cccc5c4C(=O)N(C4CCC(=O)NC4=O)C5=O)CC3)C2)c(F)cc1Nc1ncc2c(n1)N(C1CCCC1)CC(F)(F)C(=O)N2C (stereo partly drawn) [Compound 131, 4-((9-cyclopentyl-7,7-difluoro-5-methyl-6-oxo-6,7,8,9-tetrahydro-5H-pyrimido[4,5-b][1,4]diazepin-2-yl)amino)-N-((3S)-1-(3-(4-(2-(2,6-dioxopiperidin-3-yl)-1,3-dioxoisoindolin-4-yl)piperazin-1-yl)propanoyl)pyrrolidin-3-yl)-2-fluoro-5-methoxybenzamide] |
| ≤ 50 | ≥ 80 | COc1cc(C(=O)N[C@@H]2CCN(C(=O)CCN3CCN(c4cccc5c4C(=O)N(C4CCC(=O)NC4=O)C5=O)CC3)C2)c(F)cc1Nc1ncc2c(n1)N(C1CCCC1)CC(F)(F)C(=O)N2C (stereo partly drawn) [Compound 132, 4-((9-cyclopentyl-7,7-difluoro-5-methyl-6-oxo-6,7,8,9-tetrahydro-5H-pyrimido[4,5-b][1,4]diazepin-2-yl)amino)-N-((3R)-1-(3-(4-(2-(2,6-dioxopiperidin-3-yl)-1,3-dioxoisoindolin-4-yl)piperazin-1-yl)propanoyl)pyrrolidin-3-yl)-2-fluoro-5-methoxybenzamide] |
| ≤ 50 | ≥ 80 | COc1cc(C(=O)N[C@@H]2CCN(C(=O)CCCN3CCN(c4cccc5c4C(=O)N(C4CCC(=O)NC4=O)C5=O)CC3)C2)c(F)cc1Nc1ncc2c(n1)N(C1CCCC1)CC(F)(F)C(=O)N2C (stereo partly drawn) [Compound 133, 4-((9-cyclopentyl-7,7-difluoro-5-methyl-6-oxo-6,7,8,9-tetrahydro-5H-pyrimido[4,5-b][1,4]diazepin-2-yl)amino)-N-((3R)-1-(4-(4-(2-(2,6-dioxopiperidin-3-yl)-1,3-dioxoisoindolin-4-yl)piperazin-1-yl)butanoyl)pyrrolidin-3-yl)-2-fluoro-5-methoxybenzamide] |
| ≤ 50 | ≥ 80 | COc1cc(C(=O)N[C@@H]2CCN(C(=O)CCCCN3CCN(c4cccc5c4C(=O)N(C4CCC(=O)NC4=O)C5=O)CC3)C2)c(F)cc1Nc1ncc2c(n1)N(C1CCCC1)CC(F)(F)C(=O)N2C (stereo partly drawn) [Compound 134, 4-((9-cyclopentyl-7,7-difluoro-5-methyl-6-oxo-6,7,8,9-tetrahydro-5H-pyrimido[4,5-b][1,4]diazepin-2-yl)amino)-N-((3R)-1-(5-(4-(2-(2,6-dioxopiperidin-3-yl)-1,3-dioxoisoindolin-4-yl)piperazin-1-yl)pentanoyl)pyrrolidin-3-yl)-2-fluoro-5-methoxybenzamide] |
| ≤ 50 | ≥ 80 | COc1cc(C(=O)N[C@H]2CCN(C(=O)CN3CCN(c4ccc5c(c4)C(=O)N(C4CCC(=O)NC4=O)C5=O)CC3)C2)c(F)cc1Nc1ncc2c(n1)N(C1CCCC1)CC(F)(F)C(=O)N2C (stereo partly drawn) [Compound 135, 4-((9-cyclopentyl-7,7-difluoro-5-methyl-6-oxo-6,7,8,9-tetrahydro-5H-pyrimido[4,5-b][1,4]diazepin-2-yl)amino)-N-((3S)-1-(2-(4-(2-(2,6-dioxopiperidin-3-yl)-1,3-dioxoisoindolin-5-yl)piperazin-1-yl)acetyl)pyrrolidin-3-yl)-2-fluoro-5-methoxybenzamide] |
